# Reference: ChEMBL document CHEMBL1201862, “PubChem BioAssay data set” (2004)
#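 Test compounds were applied to cells in 96-well plates for 48 hours at 5 doses. Abbreviation: GI50, concentration required for 50% inhibition of growth.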 Activity calls are given as the source filed them. Rule as the data show it: active = GI50 up to about 1.1 µM and inactive = higher.
# Columns and labels:
# Test in all cases: NCI anticancer screen, dose series, 48 h
# NCI-H226 = system: NCI-H226
# IGROV-1 = system: IGROV-1
# HT-29 = system: HT-29
# OVCAR-3 = system: OVCAR-3
# SK-MEL-2 = system: SK-MEL-2
# NCI-H460 = system: NCI-H460
# MDA-MB-435 = system: MDA-MB-435
# EKVX = system: EKVX
# SNB-19 = system: SNB-19
# HCC 2998 = system: HCC 2998
# HCT-15 = system: HCT-15
# SK-MEL-5 = system: SK-MEL-5
# NCI/ADR-RES = system: NCI/ADR-RES
# COLO 205 = system: COLO 205
# A498 = system: A498
# Hs-578T = system: Hs-578T
# U-251 = system: U-251
# SF-539 = system: SF-539
# SN12C = system: SN12C
# Malme-3M = system: Malme-3M
# UACC-62 = system: UACC-62
# SF-268 = system: SF-268
# NCI-H23 = system: NCI-H23
# MCF7 = system: MCF7
# SW-620 = system: SW-620
# MDA-MB-231 = system: MDA-MB-231
# SNB-75 = system: SNB-75
# KM12 = system: KM12
# HCT-116 = system: HCT-116
# NCI-H522 = system: NCI-H522
# TK-10 = system: TK-10
# UACC-257 = system: UACC-257
# PC-3 = system: PC-3
# OVCAR-4 = system: OVCAR-4
# OVCAR-8 = system: OVCAR-8
# LOX IMVI = system: LOX IMVI
# HOP-92 = system: HOP-92
# 786-0 = system: 786-0
# HOP-62 = system: HOP-62
# SK-MEL-28 = system: SK-MEL-28
# SK-OV-3 = system: SK-OV-3
# RPMI-8226 = system: RPMI-8226
# A549 = system: A549
# T47D = system: T47D
# MOLT-4 = system: MOLT-4
# SF-295 = system: SF-295
# SR = system: SR
# RXF 393 = system: RXF 393
# M14 = system: M14
# MDA-N = system: MDA-N
# OVCAR-5 = system: OVCAR-5
# ACHN = system: ACHN
# UO-31 = system: UO-31
# DU-145 = system: DU-145
# HL-60 = system: HL-60
# CAKI-1 = system: CAKI-1
# CCRF-CEM = system: CCRF-CEM
# K562 = system: K562
compound,measurement,setting,value
c1ccc(C(NC2=NCCO2)C2CC2)cc1 (stereo not drawn),GI50,NCI-H226,> 100 µM (inactive)
same,GI50,IGROV-1,> 100 µM (inactive)
same,GI50,HT-29,58.1 µM (inactive)
same,GI50,OVCAR-3,> 100 µM (inactive)
same,GI50,SK-MEL-2,> 100 µM (inactive)
same,GI50,NCI-H460,75.2 µM (inactive)
same,GI50,MDA-MB-435,75.9 µM (inactive)
same,GI50,EKVX,> 100 µM (inactive)
same,GI50,SNB-19,88.9 µM (inactive)
same,GI50,HCC 2998,> 100 µM (inactive)
same,GI50,HCT-15,> 100 µM
same,GI50,SK-MEL-5,> 100 µM (inactive)
same,GI50,NCI/ADR-RES,> 100 µM (inactive)
same,GI50,COLO 205,> 100 µM (inactive)
same,GI50,A498,93.1 µM (inactive)
same,GI50,Hs-578T,> 100 µM (inactive)
same,GI50,U-251,> 100 µM (inactive)
same,GI50,SF-539,32.3 µM (inactive)
same,GI50,SN12C,> 100 µM (inactive)
same,GI50,Malme-3M,> 100 µM (inactive)
same,GI50,UACC-62,> 100 µM (inactive)
same,GI50,SF-268,> 100 µM (inactive)
same,GI50,NCI-H23,> 100 µM (inactive)
same,GI50,MCF7,> 100 µM (inactive)
same,GI50,SW-620,> 100 µM (inactive)
same,GI50,MDA-MB-231,> 100 µM (inactive)
same,GI50,SNB-75,> 100 µM (inactive)
same,GI50,KM12,> 100 µM (inactive)
same,GI50,HCT-116,82.8 µM (inactive)
same,GI50,NCI-H522,> 100 µM (inactive)
same,GI50,TK-10,> 100 µM (inactive)
same,GI50,UACC-257,> 100 µM (inactive)
same,GI50,PC-3,> 100 µM (inactive)
same,GI50,OVCAR-4,> 100 µM (inactive)
same,GI50,OVCAR-8,> 100 µM (inactive)
same,GI50,LOX IMVI,> 100 µM (inactive)
same,GI50,HOP-92,> 100 µM (inactive)
same,GI50,786-0,> 100 µM (inactive)
same,GI50,HOP-62,> 100 µM (inactive)
same,GI50,SK-MEL-28,> 100 µM (inactive)
same,GI50,SK-OV-3,> 100 µM (inactive)
same,GI50,RPMI-8226,> 100 µM (inactive)
same,GI50,A549,> 100 µM (inactive)
same,GI50,T47D,> 100 µM (inactive)
same,GI50,MOLT-4,> 100 µM (inactive)
same,GI50,SF-295,> 100 µM (inactive)
same,GI50,SR,> 100 µM (inactive)
same,GI50,RXF 393,> 100 µM (inactive)
same,GI50,M14,> 100 µM (inactive)
same,GI50,MDA-N,> 100 µM (inactive)
same,GI50,OVCAR-5,> 100 µM (inactive)
same,GI50,ACHN,> 100 µM (inactive)
same,GI50,UO-31,> 100 µM (inactive)
same,GI50,DU-145,> 100 µM (inactive)
C[C@]12CC[C@@H]3c4ccc(O)cc4CC[C@H]3[C@@H]1C/C(=C\c1ccncc1)C2=O,GI50,NCI-H226,19.3 µM (inactive)
same,GI50,IGROV-1,15.1 µM (inactive)
same,GI50,HT-29,19.3 µM (inactive)
same,GI50,OVCAR-3,14.8 µM (inactive)
same,GI50,SK-MEL-2,12.8 µM (inactive)
same,GI50,NCI-H460,9.4 µM (inactive)
same,GI50,MDA-MB-435,4.46 µM (inactive)
same,GI50,EKVX,28.1 µM (inactive)
same,GI50,SNB-19,38.5 µM (inactive)
same,GI50,HCC 2998,30.6 µM (inactive)
same,GI50,HCT-15,7.29 µM
same,GI50,SK-MEL-5,8.04 µM (inactive)
same,GI50,NCI/ADR-RES,17.5 µM (inactive)
same,GI50,COLO 205,29.7 µM (inactive)
same,GI50,A498,34 µM (inactive)
same,GI50,Hs-578T,14.2 µM (inactive)
same,GI50,U-251,16.1 µM (inactive)
same,GI50,SF-539,10.9 µM (inactive)
same,GI50,Malme-3M,14.1 µM (inactive)
same,GI50,UACC-62,10.3 µM (inactive)
same,GI50,SF-268,30.1 µM (inactive)
same,GI50,NCI-H23,29 µM (inactive)
same,GI50,MCF7,12 µM (inactive)
same,GI50,HL-60,10.6 µM (inactive)
same,GI50,SW-620,27.5 µM (inactive)
same,GI50,MDA-MB-231,41.4 µM (inactive)
same,GI50,CAKI-1,33.2 µM (inactive)
same,GI50,SNB-75,> 100 µM (inactive)
same,GI50,CCRF-CEM,15.3 µM (inactive)
same,GI50,KM12,13.7 µM (inactive)
same,GI50,TK-10,29.2 µM (inactive)
same,GI50,UACC-257,27.5 µM (inactive)
same,GI50,PC-3,11.6 µM (inactive)
same,GI50,OVCAR-4,15.6 µM (inactive)
same,GI50,K562,8.61 µM (inactive)
same,GI50,OVCAR-8,18.5 µM (inactive)
same,GI50,LOX IMVI,20.7 µM (inactive)
same,GI50,HOP-92,23.1 µM (inactive)
same,GI50,HOP-62,20.3 µM (inactive)
same,GI50,SK-MEL-28,64.3 µM (inactive)
same,GI50,SK-OV-3,35.1 µM (inactive)
same,GI50,RPMI-8226,8.53 µM (inactive)
same,GI50,A549,19.1 µM (inactive)
same,GI50,T47D,27.2 µM (inactive)
same,GI50,MOLT-4,4.71 µM (inactive)
same,GI50,SF-295,24.9 µM (inactive)
same,GI50,SR,6.32 µM (inactive)
same,GI50,RXF 393,20.4 µM (inactive)
same,GI50,M14,20.4 µM (inactive)
same,GI50,MDA-N,11.3 µM (inactive)
same,GI50,OVCAR-5,27.5 µM (inactive)
same,GI50,ACHN,20.1 µM (inactive)
same,GI50,UO-31,35.6 µM (inactive)
same,GI50,DU-145,12.1 µM (inactive)
